“Also recorded” adds a separate entry of the source.
Tests used:
Type in all cases: in vivo
[1] = system: genetically modified animal model; assay: Sinus arrest and atrioventricular block in a genetically modified animal model
[2] = system: beagle dog; assay: Therapeutic effect on verapamil-induced bradycardia in conscious beagle dog; details: FIG. 10
Description: A peripheral venous path was secured with an 18 G needle in the right forelimb of a beagle dog (body weight: about 10 kg, female, available from Oriental Yeast Co., Ltd.), and then held on an operating table. Heart rate was monitored with an electrocardiographic monitor worn on the animal. A manchette was worn on the left forelimb, and blood pressure was measured with an Omron automatic electronic sphygmomanometer. The left ventricular function was measured by the M-mode method using the echocardiographic left parasternal short-axis two-chamber view. After stabilization of the heart rate, verapamil (intravenous injection of Vasolan, available from Eisai Co., Ltd.) was administered by continuous intravenous injection at a dose of 0.8 mg/kg/hour with a syringe pump. About 30 minutes after the initiation of administration, the dose was increased to 2.4 mg/kg/hour, and continuous infusion was continued. Since 2:1 atrioventricular block was continuously determined 17 minutes after an increase in the dose, the administration of verapamil was discontinued. Subsequently, saline and compound (I) dihydrochloride (0.01 mg/kg, 0.1 mg/kg, 1 mg/kg) were administered by bolus intravenous injection at 10-minute intervals. About 10 minutes after each administration, electrocardiogram, heart rate, blood pressure, and left ventricular function were measured and evaluated in a stable state. […]

[3] = system: beagle dog; assay: Therapeutic effect on propranolol-induced bradycardia in conscious beagle dog; details: compound (I) dihydrochloride 0.01, 0.1, 1 mg/kg bolus i.v., FIG. 9
Description: A peripheral venous path was secured with an 18 G needle in the right forelimb of a beagle dog (body weight: about 10 kg, female, available from Oriental Yeast Co., Ltd.), and then held on an operating table. Heart rate was monitored with an electrocardiographic monitor worn on the animal. A manchette was worn on the left forelimb, and blood pressure was measured with an Omron automatic electronic sphygmomanometer. The left ventricular function was measured by the M-mode method using the echocardiographic left parasternal short-axis two-chamber view. After stabilization of the heart rate, propranolol (Inderal Injection, available from AstraZeneca K.K.) was administered by bolus intravenous injection at a dose of 2 mg/kg, followed by continuous intravenous injection at a dose of 1 mg/minute with a syringe pump. After the elapse of about 30 minutes, the stabilization of the heart rate was determined, and then saline and compound (I) dihydrochloride (0.01 mg/kg, 0.1 mg/kg, 1 mg/kg) were administered by bolus intravenous injection at 10-minute intervals. About 10 minutes after each administration, heart rate, blood pressure, and left ventricular function were measured and evaluated in a stable state. The solvent used was saline (available from Otsuka Pharmaceutical Factory, Inc.).

[4] = system: Hartley guinea pigs; assay: Effect on fingolimod-induced decrease in blood lymphocytes in guinea pig; details: compound (I) 10 or 30 mg/kg oral gavage 30 min before fingolimod hydrochloride 0.1 mg/kg oral; 5 and 24 hours; FIG. 7
Description: Hartley guinea pigs (8 weeks old, male, available from Japan SLC, Inc.) were fasted for about 16 hours, and then a solvent or compound (I) (free form) was administered by oral gavage to each animal at a dose of 10 or 30 mg/kg (volume: 5 mL/kg). The solvent used was 0.5 w/v % methyl cellulose 400 solution (available from FUJIFILM Wako Pure Chemical Corporation). Thirty minutes after the administration, a solvent or fingolimod hydrochloride was administered by oral gavage to the animal at a dose of 0.1 mg/kg (volume: 5 mL/kg). The solvent used was saline (available from Otsuka Pharmaceutical Factory, Inc.). Blood was collected from the jugular vein, the subclavian vein, or the abdominal vena cava before administration of compound (I) and 5 and 24 hours after administration of fingolimod hydrochloride. Blood cell components were analyzed with a multi-item automatic blood cell counter (XN-1000, available from Sysmex Corporation). The plasma was collected by centrifuging the blood and cryopreserved at about −20° C. After thawing of the plasma, plasma drug concentrations were measured using LC/MS/MS after deproteinization with acetonitrile.
In FIG. 7, the measurements are shown as mean±standard error, and (I) denotes compound (I).

For `Cc1cc(CO)nc2cc3c(cc12)OC(C)(C)[C@H](O)[C@H]3NCCc1ccccc1` [Compound (I), (3R,4S)-7-Hydroxymethyl-2,2,9-trimethyl-4-(phenethylamino)-3,4-dihydro-2H-pyrano[2,3-g]quinoline-3-ol], which “efficacy for sinus arrest and atrioventricular block” value [1] is on record?
The value was “effective”.

And the “verapamil-induced bradyarrhythmia (2:1 atrioventricular block)” value ([2]; 0.1 mg/kg bolus i.v.)?
The value was “exhibited a termination effect”.

And the “verapamil-induced bradyarrhythmia (2:1 atrioventricular block)” value ([2]; compound (I) dihydrochloride 0.01, 0.1, 1 mg/kg bolus i.v. after verapamil infusion up to 2.4 mg/kg/hour)?
The value was “improved bradyarrhythmia; also recorded: recovery to 1:1 atrioventricular conduction”.

What about the “effect on cardiac contraction inhibitory action of propranolol (left ventricular ejection fraction)” value [3] of the same compound?
The value was “did not affect”.

And the “propranolol-induced bradycardia (heart rate)” value ([3]; propranolol 2 mg/kg bolus then 1 mg/minute i.v.)?
The value was “improved bradycardia”.

And the “effect on the peripheral blood lymphocyte decreasing action of fingolimod” value [4]?
Its value is “does not inhibit”.

From patent US20260191853A1, “METHOD OF TREATING DRUG-INDUCED BRADYARRHYTHMIA” (OSAKA UNIVERSITY, priority 2022, published 2026)
